Measured values reported in ChEMBL document CHEMBL1139645, “Action of a novel pyrrolo[1,2-c][1.3]benzodiazepine on the viability of Jurkat and neuronal/glial cells” (2005).

How the values were obtained:
Jurkat = assay: Effect of compound on cell viability in human leukemic Jurkat cells measured as percent reduction of MTT at 570 nm O.D.; Control value 0.47 %; assay type: functional
[1] = Effect of compound on cell viability in non-transformed neuronal/glial cells measured as percent reduction of MTT at […] O.D.; Control value 0.56 %; assay type: functional, Rattus norvegicus
[2] = Effect of compound on cell viability in non-transformed neuronal/glial cells measured as percent reduction of MTT at 570 nm O.D. and exposure to 100 uM NMDA; Control value 0.56 %; assay type: functional, Rattus norvegicus
[3] = Effect of compound on cell viability in non-transformed neuronal/glial cells measured as percent reduction of MTT at 570 nm O.D. at 100 uM; Control value 0.56 %; assay type: functional, Rattus norvegicus

| Structure (SMILES) | MTT reduction (Jurkat) [O.D] | MTT reduction [1] [O.D] | MTT reduction [2] [O.D] | MTT reduction [3] [O.D] |
| --- | --- | --- | --- | --- |
| Nc1ccccc1C(=O)c1ccc[nH]1 | 0.39 | 0.65 | 0.3 | – |
| SC1=Nc2ccccc2Cc2cccn21 | 0.22 | 0.58 | 0.17 | – |
| O=c1c2ccccc2nc(S)n2cccc12 | 0.41 | 0.62 | 0.28 | – |
| Oc1c2nccc-2c(S)nc2ccccc12 | 0.45 | 0.55 | 0.25 | – |
| Nc1ccccc1Cc1ccc[nH]1 | 0.34 | 0.38 | 0.22 | – |
| CN[C@H](CC(=O)O)C(=O)O [N-METHYL-D-ASPARTIC ACID (NMDA)] | – | – | – | 0.29 |
